In one test the test system is human preadipocytes. To be noted: human preadipocytes in primary cell culture; cited from earlier work.
Test [1] relates to peroxisome proliferator-activated receptor-gamma (PPARγ), CCAAT-enhancer-binding protein α (C/EBPα), and lipoprotein lipase. The following applies: human preadipocytes; no statistical differences; cited from earlier work.
Test [2] in a line: Randomized controlled trial in (db-/db-) mice, topical to flank: body weight change. Type of test: in vivo, mouse. To be noted: 21-day study; for Absolute weight change / Relative weight change: 5 mM topical, 0.1 cc to flank daily. The procedure: (§1) A randomized controlled trial was conducted on (db-/db-) mice. Mice six weeks old were prospectively randomized into groups and assigned to the following treatment conditions (n=5 animals per group): [table] At the start of the study, hair on the right flank of each animal was clipped and depilated. Animals were kept in identical conditions and fed ab libitum. Animals were weighed daily. Following 21 consecutive days of treatment, samples of skin and adjacent fat were obtained from the treated flanks, fixed in formalin, and stained with hematoxylin and eosin for histologic examination.

Test [3] relates to adipose tissue and adipocytes. Put plainly: Randomized controlled trial in (db-/db-) mice: histologic examination of treated skin and subcutaneous fat. Type of test: in vivo, mouse. The following applies: treated flank, after 21 days of 5 mM topical treatment. The procedure:
as §1

The next test deals with dorsocervical fat pad. Put plainly: Randomized double-blind study in HIV lipodystrophy subjects, dorsocervical fat by US/CT. To be noted: human, e.g. 0.03% in transdermal vehicle once a day, e.g. after 3 months. Type of test: in vivo. An excerpt: The following experiment describes a randomized, double-blind study in human subjects to test whether locally administered Tafluprost reduces fat in the dorsocervical fat pad of HIV-seropositive patients on antiretroviral therapy who are suffering from HIV lipodystrophy. Eligible subjects (for example, n=40) with HIV lipodystrophy and abnormal accumulation of fat on the dorsal neck are entered into a randomized double-blind study. Subjects are randomized in 1:1 fashion to receive either Tafluprost, for example, 0.03%, in a suitable transdermal vehicle, or vehicle alone. The vehicle is, for example, Lipoderm® (PCCA, Houston, Tex.). Unit-dose syringes (for example, 0.5 ml per syringe) are furnished to subjects by a study pharmacist; syringes are unlabeled as to the presence of Tafluprost or vehicle. Subjects are instructed to apply, once a day, the contents of one syringe to the affected area on the back of the neck. Serial ultrasound (US) and/or computed tomography (CT) scans are conducted at the beginning of the study and then at monthly intervals. Treatment continues for 6 months.

The structures appear in SMILES notation. “Also recorded” adds a separate entry of the source. Marks after values point to notes of the source that are not given here.

In the case of `CCNC(=O)CCC/C=C\C[C@@H]1[C@@H](/C=C/[C@@H](O)CCc2ccccc2)[C@H](O)C[C@@H]1O` [Bimatoprost], the adipocyte differentiation in the test with human preadipocytes was 30 % of control. In test [1], the “inhibition of expression of adipogenic genes PPARγ, C/EBPα and lipoprotein lipase” value is “slightly more inhibition than Tafluprost”. Also, in test [2], the Absolute weight change amounted to 6.4 g and the Relative weight change is given as 22.9% over Day 0. In addition, the weight gain in test [2] (topical) is listed as 23-24 % of baseline body weight. In test [3], the “adipose thickness and adipocyte size in histologic sections, compared to Vehicle” value is on record as “did not show these effects”.
As to `CC(C)OC(=O)CCC/C=C\C[C@@H]1[C@@H](/C=C/C(F)(F)COc2ccccc2)[C@H](O)C[C@@H]1O` [Tafluprost], the adipocyte differentiation in the test with human preadipocytes is recorded as 40 % of control. The “reduction in depth and/or cross-sectional area of dorsocervical fat by serial US or CT, compared to vehicle alone” value in the test with dorsocervical fat pad is recorded as “more reduction in the depth and/or cross-sectional area of dorsocervical fat”. Moreover, in test [2], the Absolute weight change is reported as −2.4* g and the Relative weight change is −8.2% over Day 0. Also, the weight loss result in test [2] (topical) is “about 8 % of baseline body weight”. Moreover, in test [3], the “adipose thickness and adipocyte size in histologic sections, compared to Vehicle” value was “reduced adipose thickness and adipocyte size; also recorded: inhibited adipose tissue and adipocytes”.

The values are drawn from US8569376B2, “Methods and compositions for reducing body fat and adipocytes” (Topokine Therapeutics, Inc., priority 2011, dated 2013).
